{"source": "patent US12360023B2", "about": "“Method of pretreating blood sample” (LABTECHS Inc., priority 2017, dated 2025)", "tested_on": "Streptococcus agalactiae", "test": "Viability of bacteria under detergent treatment", "format": "cell-based"}
{"smiles": "CCCCCCCCCCCCOS(=O)(=O)[O-].[Na+]", "note": "[SDS, sodium dodecyl sulfate]", "values": [{"measurement": "killing of bacteria by detergent", "setting": "SDS concentration 0.05%", "result": "does not kill"}, {"measurement": "killing of bacteria by detergent", "setting": "SDS concentration 0.1% or 0.2%", "result": "largely killed"}]}
